#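 How tested: cells in 96-well plates exposed to compound for 48 hours at five concentrations. GI50 marks 50% less growth. Definition used: TGI = concentration required for complete inhibition of growth.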
# Legend:
# Experiment in all cases: NCI-60 cell line screen, 48 h
# SW-620 colon = system: SW-620 colon
# SR leukemia = system: SR leukemia
# MCF7 breast = system: MCF7 breast
# HCT-116 colon = system: HCT-116 colon
# OVCAR-5 ovarian = system: OVCAR-5 ovarian
# PC-3 prostate = system: PC-3 prostate
# CAKI-1 renal = system: CAKI-1 renal
# KM12 colon = system: KM12 colon
# HCT-15 colon = system: HCT-15 colon
# SNB-75 CNS = system: SNB-75 CNS
SMILES,GI50 (SW-620 colon),TGI (SW-620 colon),GI50 (SR leukemia),TGI (SR leukemia),GI50 (MCF7 breast),TGI (MCF7 breast),GI50 (HCT-116 colon),TGI (HCT-116 colon),GI50 (OVCAR-5 ovarian),TGI (OVCAR-5 ovarian),GI50 (PC-3 prostate),TGI (PC-3 prostate),GI50 (CAKI-1 renal),TGI (CAKI-1 renal),GI50 (KM12 colon),TGI (KM12 colon),GI50 (HCT-15 colon),TGI (HCT-15 colon),GI50 (SNB-75 CNS),TGI (SNB-75 CNS)
NS(=O)(=O)c1ccc(C2C3=C(CCCC3=O)OC3=C2C(=O)c2ccccc2C3=O)cc1 (stereo unspecified),417 nM,1.33 µM,470 nM,3.88 µM,221 nM,0.752 µM,253 nM,725 nM,1700 nM,3.51 µM,0.371 µM,1.33 µM,1740 nM,3.2 µM,1220 nM,3.27 µM,1330 nM,3.46 µM,259 nM,1.17 µM
O=CN1N=C(c2ccc(Nc3ccnc4cc(Cl)ccc34)cc2)CC1c1ccccc1 (stereo unspecified),2730 nM,9.43 µM,1770 nM,4.9 µM,3420 nM,26.7 µM,3580 nM,18500 nM,19800 nM,> 100 µM,4.76 µM,> 100 µM,3820 nM,32.2 µM,3410 nM,56.9 µM,2540 nM,14.4 µM,5030 nM,> 100 µM
CNc1nc(C)c(-c2nc(Nc3cccc(S(N)(=O)=O)c3)ncc2F)s1,28.3 nM,14.7 µM,17.1 nM,1.15 µM,25.5 nM,4.64 µM,< 16.1 nM,12500 nM,32.4 nM,15.1 µM,0.0388 µM,1.27 µM,52 nM,37.2 µM,36.8 nM,4.43 µM,48 nM,12.1 µM,44 nM,0.147 µM
COc1ccc(C2=CC(c3cc(OC)c(OC)c(OC)c3)NC(=O)N2)cc1OC (stereo unspecified),2960 nM,10.2 µM,2110 nM,10.4 µM,4260 nM,14.8 µM,3170 nM,11100 nM,2280 nM,6.42 µM,10.2 µM,> 100 µM,2260 nM,9.32 µM,2250 nM,6.12 µM,2900 nM,17.7 µM,2420 nM,7.95 µM
C=C1C(=O)O[C@H]2[C@H]1CC/C(CNS(=O)(=O)c1ccc3ccccc3c1)=C\CC[C@@]1(C)O[C@@H]21,1010 nM,2.44 µM,1230 nM,7.12 µM,943 nM,2.62 µM,879 nM,2120 nM,1990 nM,4.82 µM,7.59 µM,21.1 µM,,,10800 nM,23.8 µM,1270 nM,2.77 µM,10500 nM,23.6 µM
CCOCC(=O)N[C@H]1CCc2cc(OC)c(OC)c(OC)c2-c2ccc(SC)c(=O)cc21,,> 100 µM,,> 100 µM,,> 51.4 µM,,2390 nM,,> 100 µM,,> 25.3 µM,,> 45.8 µM,,< 0.0631 µM,,> 18.1 µM,,5.11 µM
COc1cc([C@@H]2c3cc4c(cc3C(Br)[C@H]3COC(=O)[C@H]23)OCO4)cc(OC)c1OC (stereo partly specified),194 nM,> 100 µM,117 nM,> 100 µM,168 nM,> 100 µM,207 nM,784 nM,552 nM,> 100 µM,0.438 µM,> 100 µM,117 nM,> 48.4 µM,90.9 nM,0.438 µM,253 nM,> 100 µM,271 nM,> 100 µM
CN(C)c1ccc(C(=O)c2ccc(N(C)C)c(N)c2)cc1N,1140 nM,> 100 µM,406 nM,> 16.4 µM,686 nM,> 59.9 µM,2400 nM,31300 nM,15800 nM,> 100 µM,5.97 µM,> 100 µM,3020 nM,> 43.3 µM,785 nM,43.4 µM,2350 nM,> 100 µM,1050 nM,> 23.6 µM
NC(=O)C(Br)CBr (stereo unspecified),1290 nM,2.79 µM,394 nM,2.56 µM,2180 nM,11.5 µM,1300 nM,2560 nM,5730 nM,13.7 µM,2.51 µM,11.7 µM,472 nM,1.16 µM,7630 nM,21 µM,1460 nM,3.39 µM,5300 nM,19.9 µM
O=C(Cn1c(=O)c(-c2ccccc2)nc2ccccc21)c1cccnc1,> 100000 nM,> 100 µM,> 100000 nM,> 100 µM,> 100000 nM,> 100 µM,> 100000 nM,> 100000 nM,> 100000 nM,> 100 µM,> 100 µM,> 100 µM,> 100000 nM,> 100 µM,> 100000 nM,> 100 µM,> 100000 nM,> 100 µM,,
